Data: ChEMBL document CHEMBL3414527, “Engineering potent and selective analogues of GpTx-1, a tarantula venom peptide antagonist of the Na(V)1.7 sodium channel” (J Med Chem, 2015)
Bridge positions count the residues as written; N and C are the ends. Peptide text beside a SMILES is read from it.

Each molecule was assayed against Sodium channel protein type 5 subunit alpha (Homo sapiens, UniProt Q14524) (assay: Inhibition of human NaV1.5 at -140 mV holding potential by whole-cell patch clamp assay).
Chain of Sodium channel protein type 5 subunit alpha (Q14524 whole entry): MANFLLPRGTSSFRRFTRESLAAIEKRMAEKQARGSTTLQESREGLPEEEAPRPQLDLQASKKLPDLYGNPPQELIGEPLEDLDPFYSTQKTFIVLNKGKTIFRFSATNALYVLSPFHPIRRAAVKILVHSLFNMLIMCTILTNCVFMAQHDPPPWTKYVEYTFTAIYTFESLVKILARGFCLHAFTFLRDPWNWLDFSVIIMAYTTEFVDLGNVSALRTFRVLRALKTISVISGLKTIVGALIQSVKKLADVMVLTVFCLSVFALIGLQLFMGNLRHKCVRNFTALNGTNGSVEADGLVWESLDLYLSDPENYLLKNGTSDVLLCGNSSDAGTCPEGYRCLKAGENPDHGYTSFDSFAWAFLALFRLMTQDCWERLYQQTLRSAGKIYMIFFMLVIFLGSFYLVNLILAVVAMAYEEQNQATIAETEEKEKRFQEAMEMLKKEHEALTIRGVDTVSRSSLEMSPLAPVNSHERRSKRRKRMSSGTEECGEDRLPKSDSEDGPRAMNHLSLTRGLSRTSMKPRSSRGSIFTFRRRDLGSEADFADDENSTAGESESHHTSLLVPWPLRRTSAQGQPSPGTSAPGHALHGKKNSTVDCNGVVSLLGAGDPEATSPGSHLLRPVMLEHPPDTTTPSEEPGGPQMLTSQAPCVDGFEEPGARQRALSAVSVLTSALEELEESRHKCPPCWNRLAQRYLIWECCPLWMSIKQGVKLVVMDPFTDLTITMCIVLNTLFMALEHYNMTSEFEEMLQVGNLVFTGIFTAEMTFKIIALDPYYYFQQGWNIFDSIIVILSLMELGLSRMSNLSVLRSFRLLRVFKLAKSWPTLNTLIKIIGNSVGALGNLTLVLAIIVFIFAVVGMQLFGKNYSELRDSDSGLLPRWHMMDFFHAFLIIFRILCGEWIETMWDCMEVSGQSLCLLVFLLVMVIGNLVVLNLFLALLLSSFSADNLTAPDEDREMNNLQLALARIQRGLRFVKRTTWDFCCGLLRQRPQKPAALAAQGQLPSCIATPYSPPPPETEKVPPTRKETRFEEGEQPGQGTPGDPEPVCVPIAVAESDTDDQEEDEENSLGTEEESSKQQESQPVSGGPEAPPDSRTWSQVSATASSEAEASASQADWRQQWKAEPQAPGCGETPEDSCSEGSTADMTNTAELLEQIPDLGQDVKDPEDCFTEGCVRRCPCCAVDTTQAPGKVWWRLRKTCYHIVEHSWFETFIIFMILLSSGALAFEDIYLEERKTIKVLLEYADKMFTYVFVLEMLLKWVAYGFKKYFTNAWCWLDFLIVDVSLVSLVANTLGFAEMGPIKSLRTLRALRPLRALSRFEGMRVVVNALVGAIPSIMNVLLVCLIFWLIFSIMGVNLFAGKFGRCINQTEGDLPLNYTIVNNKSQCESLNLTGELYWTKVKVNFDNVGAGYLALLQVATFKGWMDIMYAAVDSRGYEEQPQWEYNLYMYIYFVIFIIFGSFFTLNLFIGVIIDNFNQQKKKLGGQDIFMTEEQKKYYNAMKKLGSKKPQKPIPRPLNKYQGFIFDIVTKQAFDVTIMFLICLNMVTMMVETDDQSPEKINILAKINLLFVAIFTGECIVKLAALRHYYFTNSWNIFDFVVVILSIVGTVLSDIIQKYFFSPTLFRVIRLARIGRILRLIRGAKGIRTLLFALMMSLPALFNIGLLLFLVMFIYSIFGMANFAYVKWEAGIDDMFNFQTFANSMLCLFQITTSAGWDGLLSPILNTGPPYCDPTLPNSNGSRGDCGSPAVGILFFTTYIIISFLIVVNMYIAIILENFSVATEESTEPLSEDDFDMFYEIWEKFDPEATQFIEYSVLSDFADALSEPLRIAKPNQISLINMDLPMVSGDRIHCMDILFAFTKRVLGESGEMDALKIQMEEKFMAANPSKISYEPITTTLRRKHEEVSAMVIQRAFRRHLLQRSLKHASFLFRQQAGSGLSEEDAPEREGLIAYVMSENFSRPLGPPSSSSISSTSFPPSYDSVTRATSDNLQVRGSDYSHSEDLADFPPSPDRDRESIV

SMILES | IC50 [µM]
CCCC[C@@H]1NC(=O)[C@H](C)NC(=O)CNC(=O)[C@H](CC(C)C)NC(=O)[C@@H](NC(=O)[C@@H](N)CC(=O)O)CSSC[C@@H]2NC(=O)[C@@H]3CSSC[C@@H](C(=O)N[C@@H](CCCCN)C(=O)N[C@@H](Cc4ccc(O)cc4)C(=O)N[C@H](C(=O)N[C@@H](Cc4ccccc4)C(N)=O)C(C)C)NC(=O)[C@H](Cc4c[nH]c5ccccc45)NC(=O)[C@H](CCCCN)NC(=O)[C@H](Cc4cnc[nH]4)NC(=O)[C@H]([C@@H](C)O)NC(=O)[C@H](CCCNC(=N)N)NC(=O)[C@H](CO)NC(=O)[C@H](CSSC[C@H](NC(=O)[C@H](CCCCN)NC(=O)[C@H](CCCNC(=N)N)NC1=O)C(=O)N[C@@H]([C@@H](C)CC)C(=O)N1CCC[C@H]1C(=O)N[C@@H](CC(=O)O)C(=O)N[C@@H](CC(N)=O)C(=O)N[C@@H](CC(=O)O)C(=O)N[C@@H](CCCCN)C(=O)N3)NC(=O)[C@H](C(C)C)NC(=O)[C@H](CC(C)C)NC(=O)[C@H](CC(N)=O)NC(=O)[C@@H]1CCCN1C(=O)[C@H](CCCNC(=N)N)NC2=O | > 10
CSCC[C@@H]1NC(=O)[C@H](Cc2ccccc2)NC(=O)CNC(=O)[C@H](CC(C)C)NC(=O)[C@@H](NC(=O)[C@@H](N)CC(=O)O)CSSC[C@@H]2NC(=O)[C@@H]3CSSC[C@@H](C(=O)N[C@@H](CCCCN)C(=O)N[C@@H](Cc4ccc(O)cc4)C(=O)N[C@H](C(=O)N[C@@H](Cc4ccccc4)C(N)=O)C(C)C)NC(=O)[C@H](Cc4c[nH]c5ccccc45)NC(=O)[C@H](CCCCN)NC(=O)[C@H](Cc4cnc[nH]4)NC(=O)[C@H]([C@@H](C)O)NC(=O)[C@H](CCCNC(=N)N)NC(=O)[C@H](CO)NC(=O)[C@H](CSSC[C@H](NC(=O)[C@H](CCCCN)NC(=O)[C@H](CCCNC(=N)N)NC1=O)C(=O)N[C@@H](C)C(=O)N1CCC[C@H]1C(=O)N[C@@H](CC(=O)O)C(=O)N[C@@H](CC(N)=O)C(=O)N[C@@H](CC(=O)O)C(=O)N[C@@H](CCCCN)C(=O)N3)NC(=O)[C@H](C(C)C)NC(=O)[C@H](CC(C)C)NC(=O)[C@H](CC(N)=O)NC(=O)[C@@H]1CCCN1C(=O)[C@H](CCCNC(=N)N)NC2=O (H-DCLGFMRKCAPDNDKCCRPNLVCSRTHKWCKYVF-NH2; disulfide 2-17, 9-23, 16-30) | > 5
CC[C@H](C)[C@@H]1NC(=O)[C@@H]2CSSC[C@@H]3NC(=O)[C@H](C(C)C)NC(=O)[C@H](CC(C)C)NC(=O)[C@H](C)NC(=O)[C@@H]4CCCN4C(=O)[C@H](CCCNC(=N)N)NC(=O)[C@H](CSSC[C@H](NC(=O)[C@@H](N)CC(=O)O)C(=O)N[C@@H](CC(C)C)C(=O)NCC(=O)N[C@@H](Cc4ccccc4)C(=O)N[C@@H](CCSC)C(=O)N[C@@H](CCCNC(=N)N)C(=O)N[C@@H](CCCCN)C(=O)N2)NC(=O)[C@H](CSSC[C@@H](C(=O)N[C@@H](CCCCN)C(=O)N[C@@H](Cc2ccc(O)cc2)C(=O)N[C@H](C(=O)N[C@@H](Cc2ccccc2)C(N)=O)C(C)C)NC(=O)[C@H](Cc2c[nH]c4ccccc24)NC(=O)[C@H](CCCCN)NC(=O)[C@H](Cc2cnc[nH]2)NC(=O)[C@H]([C@@H](C)O)NC(=O)[C@H](CCCNC(=N)N)NC(=O)[C@H](CO)NC3=O)NC(=O)[C@H](CCCCN)NC(=O)[C@H](CC(=O)O)NC(=O)[C@H](CC(N)=O)NC(=O)[C@H](CC(=O)O)NC(=O)[C@@H]2CCCN2C1=O (H-DCLGFMRKCIPDNDKCCRPALVCSRTHKWCKYVF-NH2; disulfide 2-17, 9-23, 16-30) | > 5
CC[C@H](C)[C@@H]1NC(=O)[C@@H]2CSSC[C@@H]3NC(=O)[C@H](C)NC(=O)[C@H](CC(C)C)NC(=O)[C@H](CC(N)=O)NC(=O)[C@@H]4CCCN4C(=O)[C@H](CCCNC(=N)N)NC(=O)[C@H](CSSC[C@H](NC(=O)[C@@H](N)CC(=O)O)C(=O)N[C@@H](CC(C)C)C(=O)NCC(=O)N[C@@H](Cc4ccccc4)C(=O)N[C@@H](CCSC)C(=O)N[C@@H](CCCNC(=N)N)C(=O)N[C@@H](CCCCN)C(=O)N2)NC(=O)[C@H](CSSC[C@@H](C(=O)N[C@@H](CCCCN)C(=O)N[C@@H](Cc2ccc(O)cc2)C(=O)N[C@H](C(=O)N[C@@H](Cc2ccccc2)C(N)=O)C(C)C)NC(=O)[C@H](Cc2c[nH]c4ccccc24)NC(=O)[C@H](CCCCN)NC(=O)[C@H](Cc2cnc[nH]2)NC(=O)[C@H]([C@@H](C)O)NC(=O)[C@H](CCCNC(=N)N)NC(=O)[C@H](CO)NC3=O)NC(=O)[C@H](CCCCN)NC(=O)[C@H](CC(=O)O)NC(=O)[C@H](CC(N)=O)NC(=O)[C@H](CC(=O)O)NC(=O)[C@@H]2CCCN2C1=O (H-DCLGFMRKCIPDNDKCCRPNLACSRTHKWCKYVF-NH2; disulfide 2-17, 9-23, 16-30) | > 5
CC[C@H](C)[C@@H]1NC(=O)[C@@H]2CSSC[C@@H]3NC(=O)[C@H](C(C)C)NC(=O)[C@H](CC(C)C)NC(=O)[C@H](CC(N)=O)NC(=O)[C@@H]4CCCN4C(=O)[C@H](CCCNC(=N)N)NC(=O)[C@H](CSSC[C@H](NC(=O)[C@@H](N)CC(=O)O)C(=O)N[C@@H](CC(C)C)C(=O)NCC(=O)N[C@@H](CCSC)C(=O)N[C@@H](CCSC)C(=O)N[C@@H](CCCNC(=N)N)C(=O)N[C@@H](CCCCN)C(=O)N2)NC(=O)[C@H](CSSC[C@@H](C(=O)N[C@@H](CCCCN)C(=O)N[C@@H](Cc2ccc(O)cc2)C(=O)N[C@H](C(=O)N[C@@H](Cc2ccccc2)C(N)=O)C(C)C)NC(=O)[C@H](Cc2c[nH]c4ccccc24)NC(=O)[C@H](CCCCN)NC(=O)[C@H](Cc2cnc[nH]2)NC(=O)[C@H]([C@@H](C)O)NC(=O)[C@H](CCCNC(=N)N)NC(=O)[C@H](CO)NC3=O)NC(=O)[C@H](CCCCN)NC(=O)[C@H](CC(=O)O)NC(=O)[C@H](CC(N)=O)NC(=O)[C@H](CC(=O)O)NC(=O)[C@@H]2CCCN2C1=O (H-DCLGMMRKCIPDNDKCCRPNLVCSRTHKWCKYVF-NH2; disulfide 2-17, 9-23, 16-30) | > 10
CC[C@H](C)[C@@H]1NC(=O)[C@@H]2CSSC[C@@H]3NC(=O)[C@H](C(C)C)NC(=O)[C@H](CC(C)C)NC(=O)[C@H](CC(N)=O)NC(=O)[C@@H]4CCCN4C(=O)[C@H](CCCNC(=N)N)NC(=O)[C@H](CSSC[C@H](NC(=O)[C@@H](N)CC(=O)O)C(=O)N[C@@H](CC(C)C)C(=O)NCC(=O)N[C@@H](Cc4ccccc4)C(=O)N[C@@H](CCSC)C(=O)N[C@@H](CCCNC(=N)N)C(=O)N[C@@H](CCCCN)C(=O)N2)NC(=O)[C@H](CSSC[C@@H](C(=O)N[C@@H](CCCCN)C(=O)N[C@@H](Cc2ccc(O)cc2)C(=O)N[C@H](C(=O)N[C@@H](Cc2ccccc2)C(=O)N[C@@H](C)C(N)=O)C(C)C)NC(=O)[C@H](Cc2c[nH]c4ccccc24)NC(=O)[C@H](CCCCN)NC(=O)[C@H](Cc2cnc[nH]2)NC(=O)[C@H]([C@@H](C)O)NC(=O)[C@H](CCCNC(=N)N)NC(=O)[C@H](CO)NC3=O)NC(=O)[C@H](CCCCN)NC(=O)[C@H](CC(=O)O)NC(=O)[C@H](CC(N)=O)NC(=O)[C@H](CC(=O)O)NC(=O)[C@@H]2CCCN2C1=O | > 5
CC[C@H](C)[C@@H]1NC(=O)[C@@H]2CSSC[C@@H]3NC(=O)[C@H](C(C)C)NC(=O)[C@H](CC(C)C)NC(=O)[C@H](CC(N)=O)NC(=O)[C@@H]4CCCN4C(=O)[C@H](CCCNC(=N)N)NC(=O)[C@H](CSSC[C@H](NC(=O)[C@@H](N)CC(=O)O)C(=O)N[C@@H](CC(C)C)C(=O)NCC(=O)NCC(=O)N[C@@H](CCSC)C(=O)N[C@@H](CCCNC(=N)N)C(=O)N[C@@H](CCCCN)C(=O)N2)NC(=O)[C@H](CSSC[C@@H](C(=O)N[C@@H](CCCCN)C(=O)N[C@@H](Cc2ccc(O)cc2)C(=O)N[C@H](C(=O)N[C@@H](Cc2ccccc2)C(N)=O)C(C)C)NC(=O)[C@H](Cc2c[nH]c4ccccc24)NC(=O)[C@H](CCCCN)NC(=O)[C@H](Cc2cnc[nH]2)NC(=O)[C@H]([C@@H](C)O)NC(=O)[C@H](CCCNC(=N)N)NC(=O)[C@H](CO)NC3=O)NC(=O)[C@H](CCCCN)NC(=O)[C@H](CC(=O)O)NC(=O)[C@H](CC(N)=O)NC(=O)[C@H](CC(=O)O)NC(=O)[C@@H]2CCCN2C1=O (H-DCLGGMRKCIPDNDKCCRPNLVCSRTHKWCKYVF-NH2; disulfide 2-17, 9-23, 16-30) | > 10
CC[C@H](C)[C@@H]1NC(=O)[C@@H]2CSSC[C@@H]3NC(=O)[C@H](C(C)C)NC(=O)[C@H](CC(C)C)NC(=O)[C@H](CC(N)=O)NC(=O)[C@@H]4CCCN4C(=O)[C@H](CCCNC(=N)N)NC(=O)[C@H](CSSC[C@H](NC(=O)[C@@H](N)CC(=O)O)C(=O)N[C@@H](CC(C)C)C(=O)NCC(=O)N[C@@H](C)C(=O)N[C@@H](Cc4ccccc4)C(=O)N[C@@H](CCCNC(=N)N)C(=O)N[C@@H](CCCCN)C(=O)N2)NC(=O)[C@H](CSSC[C@@H](C(=O)N[C@@H](CCCCN)C(=O)N[C@@H](Cc2ccc(O)cc2)C(=O)N[C@H](C(=O)N[C@@H](Cc2ccccc2)C(N)=O)C(C)C)NC(=O)[C@H](Cc2c[nH]c4ccccc24)NC(=O)[C@H](CCCCN)NC(=O)[C@H](Cc2cnc[nH]2)NC(=O)[C@H](CC(C)C)NC(=O)[C@H](CCCNC(=N)N)NC(=O)[C@H](CO)NC3=O)NC(=O)[C@H](CCCCN)NC(=O)[C@H](CC(=O)O)NC(=O)[C@H](CC(N)=O)NC(=O)[C@H](CC(=O)O)NC(=O)[C@@H]2CCCN2C1=O (H-DCLGAFRKCIPDNDKCCRPNLVCSRLHKWCKYVF-NH2; disulfide 2-17, 9-23, 16-30) | > 10
CC[C@H](C)[C@@H]1NC(=O)[C@@H]2CSSC[C@@H]3NC(=O)[C@H](C(C)C)NC(=O)[C@H](CC(C)C)NC(=O)[C@H](CC(N)=O)NC(=O)[C@@H]4CCCN4C(=O)[C@H](CCCNC(=N)N)NC(=O)[C@H](CSSC[C@H](NC(=O)[C@@H](N)CC(=O)O)C(=O)N[C@@H](CC(C)C)C(=O)NCC(=O)N[C@@H](Cc4ccccc4)C(=O)N[C@@H](CCSC)C(=O)N[C@@H](C)C(=O)N[C@@H](CCCCN)C(=O)N2)NC(=O)[C@H](CSSC[C@@H](C(=O)N[C@@H](CCCCN)C(=O)N[C@@H](Cc2ccc(O)cc2)C(=O)N[C@H](C(=O)N[C@@H](Cc2ccccc2)C(N)=O)C(C)C)NC(=O)[C@H](Cc2c[nH]c4ccccc24)NC(=O)[C@H](CCCCN)NC(=O)[C@H](Cc2cnc[nH]2)NC(=O)[C@H]([C@@H](C)O)NC(=O)[C@H](CCCNC(=N)N)NC(=O)[C@H](CO)NC3=O)NC(=O)[C@H](CCCCN)NC(=O)[C@H](CC(=O)O)NC(=O)[C@H](CC(N)=O)NC(=O)[C@H](CC(=O)O)NC(=O)[C@@H]2CCCN2C1=O (H-DCLGFMAKCIPDNDKCCRPNLVCSRTHKWCKYVF-NH2; disulfide 2-17, 9-23, 16-30) | > 5
